ChEMBL document CHEMBL1151685, “Structure-activity relationship of antibacterial chalcones” (2008)
In brackets after ≈: the same amount, converted by molar mass.

Columns and labels:
Assay type in all cases: functional
Bacillus cereus = assay: Antibacterial activity against Bacillus cereus ATCC 11778 after 24 hrs by microdilution broth method; details: ATCC 11778, 24 h
Pseudomonas aeruginosa = assay: Antibacterial activity against Pseudomonas aeruginosa ATCC 27853 after 24 hrs by microdilution broth method; details: ATCC 27853, 24 h
Staphylococcus aureus = assay: Antibacterial activity against Staphylococcus aureus ATCC 25923 after 24 hrs by microdilution broth method; details: ATCC 25923, 24 h
Escherichia coli = assay: Antibacterial activity against Escherichia coli ATCC 25922 after 24 hrs by microdilution broth method; details: ATCC 25922, 24 h

Structure (SMILES)	MBC (Bacillus cereus) [µg/mL]	MIC (Bacillus cereus) [µg/mL]	MBC (Pseudomonas aeruginosa) [µg/mL]	MIC (Pseudomonas aeruginosa) [µg/mL]	MBC (Staphylococcus aureus) [µg/mL]	MIC (Staphylococcus aureus) [µg/mL]	MBC (Escherichia coli) [µg/mL]	MIC (Escherichia coli) [µg/mL]
CC(C)=CCc1c(O)ccc(C(=O)/C=C/c2ccccc2)c1O [ISOCORDOIN]	2000 (≈ 6.49 mM)	2000 (≈ 6.49 mM)	1000 (≈ 3.24 mM)	2000 (≈ 6.49 mM)	2000 (≈ 6.49 mM)	2000 (≈ 6.49 mM)	2000 (≈ 6.49 mM)	2000 (≈ 6.49 mM)
COc1ccc(/C=C/C(=O)c2ccc(OC)c(CC=C(C)C)c2O)cc1	2000 (≈ 5.67 mM)	2000 (≈ 5.67 mM)	2000 (≈ 5.67 mM)	2000 (≈ 5.67 mM)	2000 (≈ 5.67 mM)	2000 (≈ 5.67 mM)	> 2000	2000 (≈ 5.67 mM)
COc1ccc(C(=O)/C=C/c2c(OC)cc(OC)c(OC)c2OC)cc1OC	2000 (≈ 5.15 mM)	2000 (≈ 5.15 mM)	> 2000	2000 (≈ 5.15 mM)	> 2000	2000 (≈ 5.15 mM)	> 2000	2000 (≈ 5.15 mM)
COc1ccc(C(=O)/C=C/c2ccc(O)cc2)cc1	2000 (≈ 7.87 mM)	2000 (≈ 7.87 mM)	2000 (≈ 7.87 mM)	1000 (≈ 3.93 mM)	2000 (≈ 7.87 mM)	2000 (≈ 7.87 mM)	2000 (≈ 7.87 mM)	1000 (≈ 3.93 mM)
CC(C)=CCOc1ccc(C(=O)/C=C/c2ccc(O)cc2)c(O)c1	1000 (≈ 3.08 mM)	1000 (≈ 3.08 mM)	2000 (≈ 6.17 mM)	2000 (≈ 6.17 mM)	2000 (≈ 6.17 mM)	2000 (≈ 6.17 mM)	> 2000	2000 (≈ 6.17 mM)
CC(C)=CCC/C(C)=C\Cc1c(O)ccc(C(=O)/C=C/c2ccc(O)c(CC=C(C)C)c2)c1O	15.6 (≈ 0.0339 mM)	15.6 (≈ 0.0339 mM)	2000 (≈ 4.34 mM)	1000 (≈ 2.17 mM)	31.2 (≈ 0.0677 mM)	31.2 (≈ 0.0677 mM)	2000 (≈ 4.34 mM)	1000 (≈ 2.17 mM)
O=C(CCc1ccccc1O)c1ccccc1	500 (≈ 2.21 mM)	500 (≈ 2.21 mM)	2000 (≈ 8.84 mM)	1000 (≈ 4.42 mM)	500 (≈ 2.21 mM)	500 (≈ 2.21 mM)	2000 (≈ 8.84 mM)	2000 (≈ 8.84 mM)
COc1ccc(C(=O)/C=C/c2ccc(O)cc2)c(O)c1CC=C(C)C	3.9 (≈ 0.0115 mM)	3.9 (≈ 0.0115 mM)	2000 (≈ 5.91 mM)	2000 (≈ 5.91 mM)	7.8 (≈ 0.023 mM)	7.8 (≈ 0.023 mM)	2000 (≈ 5.91 mM)	2000 (≈ 5.91 mM)
CC1(C)C=Cc2c(ccc(C(=O)/C=C/c3ccccc3)c2O)O1 [LONCHOCARPIN]	2000 (≈ 6.53 mM)	2000 (≈ 6.53 mM)	2000 (≈ 6.53 mM)	2000 (≈ 6.53 mM)	2000 (≈ 6.53 mM)	2000 (≈ 6.53 mM)	1000 (≈ 3.26 mM)	1000 (≈ 3.26 mM)
COc1ccc(C(=O)/C=C/c2ccccc2O)c(O)c1CC=C(C)C	2000 (≈ 5.91 mM)	2000 (≈ 5.91 mM)	2000 (≈ 5.91 mM)	2000 (≈ 5.91 mM)	> 2000	2000 (≈ 5.91 mM)	2000 (≈ 5.91 mM)	2000 (≈ 5.91 mM)
CC(C)=CCOc1ccc(C(=O)/C=C/c2ccccc2)c(O)c1 [CORDOIN]	2000 (≈ 6.49 mM)	2000 (≈ 6.49 mM)	2000 (≈ 6.49 mM)	2000 (≈ 6.49 mM)	> 2000	2000 (≈ 6.49 mM)	> 2000	2000 (≈ 6.49 mM)
CC(C)=CCC/C(C)=C\Cc1c(O)ccc(C(=O)/C=C/c2ccc(O)cc2)c1O	15.6 (≈ 0.0397 mM)	15.6 (≈ 0.0397 mM)	2000 (≈ 5.1 mM)	1000 (≈ 2.55 mM)	31.2 (≈ 0.0795 mM)	31.2 (≈ 0.0795 mM)	2000 (≈ 5.1 mM)	1000 (≈ 2.55 mM)
COc1ccc(C(=O)/C=C/c2ccccc2O)cc1OC	1000 (≈ 3.52 mM)	1000 (≈ 3.52 mM)	> 2000	1000 (≈ 3.52 mM)	2000 (≈ 7.03 mM)	1000 (≈ 3.52 mM)	2000 (≈ 7.03 mM)	1000 (≈ 3.52 mM)
COc1cc(OC)c(C(=O)/C=C/c2ccc3c(c2)OCO3)c(OC)c1OC	> 2000	2000 (≈ 5.37 mM)	2000 (≈ 5.37 mM)	2000 (≈ 5.37 mM)	> 2000	> 2000	2000 (≈ 5.37 mM)	2000 (≈ 5.37 mM)
COc1ccc(C(=O)/C=C/c2cccc(O)c2)c(O)c1CC=C(C)C	1000 (≈ 2.96 mM)	1000 (≈ 2.96 mM)	2000 (≈ 5.91 mM)	2000 (≈ 5.91 mM)	2000 (≈ 5.91 mM)	2000 (≈ 5.91 mM)	2000 (≈ 5.91 mM)	2000 (≈ 5.91 mM)
O=C(CCc1ccc(O)cc1)c1c(O)cc(O)cc1O [PHLORETIN]	250 (≈ 0.912 mM)	250 (≈ 0.912 mM)	2000 (≈ 7.29 mM)	2000 (≈ 7.29 mM)	250 (≈ 0.912 mM)	250 (≈ 0.912 mM)	1000 (≈ 3.65 mM)	> 2000
COc1ccc(/C=C/C(=O)c2cc(OC)c(OC)cc2O)cc1	> 2000	1000 (≈ 3.18 mM)	> 2000	1000 (≈ 3.18 mM)	> 2000	2000 (≈ 6.36 mM)	> 2000	2000 (≈ 6.36 mM)
CN(C)[C@@H]1C(O)=C(C(N)=O)C(=O)[C@@]2(O)C(O)=C3C(=O)c4c(O)cccc4[C@@](C)(O)[C@H]3C[C@@H]12 [TETRACYCLINE]		0.25 (≈ 0.000563 mM)		32 (≈ 0.072 mM)		1 (≈ 0.00225 mM)		2 (≈ 0.0045 mM)
COc1ccc(C(=O)/C=C/c2ccccc2)c(O)c1CC=C(C)C [DERRICIN]	2000 (≈ 6.2 mM)	2000 (≈ 6.2 mM)	2000 (≈ 6.2 mM)	2000 (≈ 6.2 mM)	> 2000	2000 (≈ 6.2 mM)	2000 (≈ 6.2 mM)	2000 (≈ 6.2 mM)
CC1(C)C=Cc2cc(C(=O)/C=C/c3ccccc3)c(O)cc2O1 [ISOLONCHOCARPIN]	> 2000	1000 (≈ 3.26 mM)	> 2000	2000 (≈ 6.53 mM)	> 2000	2000 (≈ 6.53 mM)	> 2000	2000 (≈ 6.53 mM)
COc1cc(OC)c(OC)cc1/C=C/C(=O)c1ccc(OC)c(OC)c1	> 2000	2000 (≈ 5.58 mM)	> 2000	2000 (≈ 5.58 mM)	> 2000	2000 (≈ 5.58 mM)	> 2000	1000 (≈ 2.79 mM)
COc1ccc(C(=O)/C=C/c2ccccc2)cc1OC [3',4'-DIMETHOXYCHALCONE]	1000 (≈ 3.73 mM)	1000 (≈ 3.73 mM)	2000 (≈ 7.45 mM)	1000 (≈ 3.73 mM)	2000 (≈ 7.45 mM)	1000 (≈ 3.73 mM)	1000 (≈ 3.73 mM)	2000 (≈ 7.45 mM)
COc1cc(OC)c(C(=O)CCc2ccc3c(c2)OCO3)cc1OC	2000 (≈ 5.81 mM)	2000 (≈ 5.81 mM)	2000 (≈ 5.81 mM)	2000 (≈ 5.81 mM)	2000 (≈ 5.81 mM)	2000 (≈ 5.81 mM)	2000 (≈ 5.81 mM)	2000 (≈ 5.81 mM)
COc1ccc(/C=C/C(=O)c2c(OC)cc(OC)c(OC)c2OC(C)=O)cc1	> 2000	2000 (≈ 5.18 mM)	2000 (≈ 5.18 mM)	1000 (≈ 2.59 mM)	> 2000	2000 (≈ 5.18 mM)	> 2000	1000 (≈ 2.59 mM)
CC1(C)C=Cc2cc(C(=O)/C=C/c3ccc(O)cc3)c(O)cc2O1 [4-HYDROXYISOLONCHOCARPIN]	> 2000	1000 (≈ 3.1 mM)	> 2000	2000 (≈ 6.2 mM)	> 2000	1000 (≈ 3.1 mM)	> 2000	2000 (≈ 6.2 mM)
CC(C)=CCc1c(O)ccc(C(=O)/C=C/c2ccc(O)cc2)c1O [ISOBAVACHALCONE]	31.2 (≈ 0.0962 mM)	31.2 (≈ 0.0962 mM)	2000 (≈ 6.17 mM)	1000 (≈ 3.08 mM)	31.2 (≈ 0.0962 mM)	31.2 (≈ 0.0962 mM)	1000 (≈ 3.08 mM)	1000 (≈ 3.08 mM)
O=C(/C=C/c1ccc(O)cc1)c1ccc(O)cc1O [ISOLIQUIRITIGENIN]	62.5 (≈ 0.244 mM)	62.5 (≈ 0.244 mM)	2000 (≈ 7.8 mM)	2000 (≈ 7.8 mM)	62.5 (≈ 0.244 mM)	62.5 (≈ 0.244 mM)	2000 (≈ 7.8 mM)	2000 (≈ 7.8 mM)
